Measured values from patent publication US20160355530A1, “HEPATITIS C INHIBITORS AND USES THEREOF” (AbbVie Inc., priority 2010, published 2016).
Like-named read-outs stand apart in the source and are kept apart here.

Assays:
[1] = target: T1, HCV NS5B polymerase 1a-H77 (Hepatitis C virus genotype 1a, UniProt P27958); experiment: biochemical; set-up: species or system HCV genotype 1a; conditions: enzyme, strain 1a H77; read-out: HCV Polymerase Strain 1a H77 IC50
T1 construct: six-histidine tag; made in house; host or cells: E. coli
T1 sequence (P27958 2421-2990): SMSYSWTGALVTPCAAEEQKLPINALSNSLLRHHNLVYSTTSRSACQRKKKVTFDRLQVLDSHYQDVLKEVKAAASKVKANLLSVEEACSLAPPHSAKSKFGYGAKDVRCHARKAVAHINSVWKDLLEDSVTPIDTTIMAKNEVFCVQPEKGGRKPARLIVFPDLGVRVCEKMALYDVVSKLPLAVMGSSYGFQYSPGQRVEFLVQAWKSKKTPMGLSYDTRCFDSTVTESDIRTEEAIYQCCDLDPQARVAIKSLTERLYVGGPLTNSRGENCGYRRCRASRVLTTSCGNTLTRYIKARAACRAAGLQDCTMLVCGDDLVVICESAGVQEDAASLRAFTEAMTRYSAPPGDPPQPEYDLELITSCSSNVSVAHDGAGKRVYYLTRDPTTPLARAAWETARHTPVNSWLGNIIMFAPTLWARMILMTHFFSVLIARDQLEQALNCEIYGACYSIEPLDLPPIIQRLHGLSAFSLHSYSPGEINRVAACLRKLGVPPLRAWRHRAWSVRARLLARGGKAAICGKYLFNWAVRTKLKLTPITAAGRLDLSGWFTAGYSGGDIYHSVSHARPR
Procedure, shortened: (§1)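 Recombinant NS5B (residues 1–570, His-tagged, E. coli-expressed) copied 5 nM of a 2.1 kb HCV 1b negative-strand 3′-end RNA template with 20 μM CTP, 20 μM ATP and 0.284 μM [3H]UTP for 3 h at 30 °C. Spermine-precipitated RNA was filter-captured and counted, and IC50 was fitted by nonlinear regression.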

[2] = target: T2, HCV NS5B polymerase 1a-H77-C316Y (Hepatitis C virus genotype 1a, UniProt P27958, C2736Y); experiment: biochemical; set-up: species or system HCV genotype 1a
T2 construct: six-histidine tag; made in house; host or cells: E. coli
T2 sequence (P27958 2421-2990 C2736Y): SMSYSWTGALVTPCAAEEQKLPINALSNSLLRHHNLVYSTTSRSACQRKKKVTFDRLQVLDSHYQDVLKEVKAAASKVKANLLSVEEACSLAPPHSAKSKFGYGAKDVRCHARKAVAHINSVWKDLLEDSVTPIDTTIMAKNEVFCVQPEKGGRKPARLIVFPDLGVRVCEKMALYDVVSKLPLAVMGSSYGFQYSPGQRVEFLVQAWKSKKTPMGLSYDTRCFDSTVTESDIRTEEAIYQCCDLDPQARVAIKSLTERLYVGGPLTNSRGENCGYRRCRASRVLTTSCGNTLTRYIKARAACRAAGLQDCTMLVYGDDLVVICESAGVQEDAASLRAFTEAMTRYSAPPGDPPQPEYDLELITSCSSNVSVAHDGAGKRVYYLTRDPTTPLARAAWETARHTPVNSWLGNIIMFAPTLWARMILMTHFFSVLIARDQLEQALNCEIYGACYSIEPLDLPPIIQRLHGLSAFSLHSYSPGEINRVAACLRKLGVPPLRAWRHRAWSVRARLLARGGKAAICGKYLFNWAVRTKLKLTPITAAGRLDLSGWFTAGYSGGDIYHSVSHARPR
Procedure, shortened: as §1

[3] = test system: HCV NS5B polymerase 1a-H77-C316Y; experiment: biochemical; set-up: species or system HCV genotype 1a; conditions: ratio of enzyme IC50s, 1a H77-C316Y / 1a H77
Procedure, shortened: as §1

[4] = target: T3, HCV NS5B polymerase 1b BK strain (Hepatitis C virus genotype 1b, UniProt P26663); experiment: HCV NS5B polymerase enzymatic inhibition assay, strain 1b BK; format: biochemical; conditions: enzyme, strain 1b BK; read-out: HCV Polymerase Strain 1b BK IC50
T3 construct: six-histidine tag; made in house; host or cells: E. coli
T3 sequence (P26663 2420-2989): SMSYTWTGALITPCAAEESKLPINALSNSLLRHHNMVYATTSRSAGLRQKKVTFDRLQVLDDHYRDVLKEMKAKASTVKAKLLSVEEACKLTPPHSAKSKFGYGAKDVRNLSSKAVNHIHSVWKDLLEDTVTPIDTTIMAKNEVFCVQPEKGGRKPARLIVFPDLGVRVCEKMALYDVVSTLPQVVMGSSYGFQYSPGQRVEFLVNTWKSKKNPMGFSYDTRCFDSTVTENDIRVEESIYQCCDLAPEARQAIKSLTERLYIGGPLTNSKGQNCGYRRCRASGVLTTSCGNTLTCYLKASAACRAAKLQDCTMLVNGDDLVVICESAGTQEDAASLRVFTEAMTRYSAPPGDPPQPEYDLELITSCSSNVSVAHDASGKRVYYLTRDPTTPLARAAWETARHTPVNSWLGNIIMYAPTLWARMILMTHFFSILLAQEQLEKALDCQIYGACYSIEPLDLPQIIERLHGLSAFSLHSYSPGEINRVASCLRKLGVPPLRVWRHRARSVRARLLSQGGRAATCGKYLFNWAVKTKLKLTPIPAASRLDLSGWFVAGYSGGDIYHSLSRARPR
Procedure, shortened: as §1

[5] = test system: HCV 1a-H77 subgenomic replicon; experiment: microbe, parasite or virus in culture; format: cell-based, HCV genotype 1a; conditions: Hepatitis C virus, stable replicon
[6] = test system: HCV 1b-BB7 subgenomic replicon; experiment: microbe, parasite or virus in culture; format: cell-based, HCV genotype 1b; conditions: Hepatitis C virus, stable replicon
[7] = 5% FBS, absence of human plasma, read-out: Stable Replicon 1a H77 5% FBS EC50
[8] = strain 1a H77, 5% FBS + 40% human plasma, read-out: 1a H77 5% FBS + 40% Human Plasma EC50
[9] = strain 1a H77, 5% FBS, no human plasma, read-out: 1a H77 5% FBS EC50
[10] = strain 1a H77, 5% FBS, read-out: 1a H77 5% FBS EC50
[11] = strain 1b BB7, 5% FBS + 40% human plasma, read-out: 1b BB7 5% FBS + 40% Human Plasma EC50
[12] = strain 1b BB7, 5% FBS, no human plasma, read-out: 1b BB7 5% FBS EC50
[13] = strain 1b BB7, 5% FBS, read-out: 1b BB7 5% FBS EC50

SMILES	IC50 [1] [µM]	IC50 [2] [µM]	C316Y/1a Fold Resistance [3] [fold]	IC50 [4] [µM]	EC50 [5, 7] [µM]	EC50 [5, 8] [µM]	EC50 [5, 9] [µM]	EC50 [5, 10] [µM]	EC50 [6, 11] [µM]	EC50 [6, 12] [µM]	EC50 [6, 13] [µM]
CS(=O)(=O)N(CC1CCCO1)c1cc2oc(-c3ccc(F)cc3)c(-c3ncc[nH]3)c2cc1C1CC1 (stereo not shown) [Example 75, N-[5-cyclopropyl-2-(4-fluorophenyl)-3-(1H-imidazol-2-yl)-1-benzofuran-6-yl]-N-(tetrahydrofuran-2-ylmethyl)methanesulfonamide]	0.0065	1.6	247	0.06	0.0696	1.08	0.0696	0.0696	1.16	0.045	0.045
CC(C)=CCCN(c1cc2oc(-c3ccc(F)cc3)c(-c3ncc[nH]3)c2cc1C1CC1)S(C)(=O)=O [Example 76, N-[5-cyclopropyl-2-(4-fluorophenyl)-3-(1H-imidazol-2-yl)-1-benzofuran-6-yl]-N-(4-methylpent-3-en-1-yl)methanesulfonamide]	0.0059	0.131	22	0.023	0.0485	3.96	0.0485	0.0485	0.661	0.0269	0.0269
Cc1ncsc1CCN(c1cc2oc(-c3ccc(F)cc3)c(-c3ncc[nH]3)c2cc1C1CC1)S(C)(=O)=O [Example 78, N-[5-cyclopropyl-2-(4-fluorophenyl)-3-(1H-imidazol-2-yl)-1-benzofuran-6-yl]-N-[2-(4-methyl-1,3-thiazol-5-yl)ethyl]methanesulfonamide]	0.004	0.107	27	0.013	0.0385	1.06	0.0385	0.0385	0.514	0.0157	0.0157
CS(=O)(=O)N(CCN1CCCC1)c1cc2oc(-c3ccc(F)cc3)c(-c3ncc[nH]3)c2cc1C1CC1 [Example 81, N-[5-cyclopropyl-2-(4-fluorophenyl)-3-(1H-imidazol-2-yl)-1-benzofuran-6-yl]-N-[2-(pyrrolidin-1-yl)ethyl]methanesulfonamide]	0.0318	4.8	151	0.137	0.205	0.732	0.205	0.205	0.129	0.0369	0.0369
CS(=O)(=O)N(CCCC(=O)O)c1cc2oc(-c3ccc(F)cc3)c(-c3ncc[nH]3)c2cc1C1CC1 [Example 89, 4-{[5-cyclopropyl-2-(4-fluorophenyl)-3-(1H-imidazol-2-yl)-1-benzofuran-6-yl](methylsulfonyl)amino}butanoic acid]	0.005	0.077	15	0.065	0.269	2.44	0.269	0.269	0.376	0.0915	0.0915
CS(=O)(=O)N(CC(O)CO)c1cc2oc(-c3ccc(F)cc3)c(-c3ncc[nH]3)c2cc1C1CC1 (stereo not shown) [Example 93, N-[5-cyclopropyl-2-(4-fluorophenyl)-3-(1H-imidazol-2-yl)-1-benzofuran-6-yl]-N-(2,3-dihydroxypropyl)methanesulfonamide]	0.005	1.6	320	0.117	0.0832	0.915	0.0832	0.0832	0.88	0.0634	0.0634
CC(C)(O)C(O)CN(c1cc2oc(-c3ccc(F)cc3)c(-c3ncc[nH]3)c2cc1C1CC1)S(C)(=O)=O (stereo not shown) [Example 94, N-[5-cyclopropyl-2-(4-fluorophenyl)-3-(1H-imidazol-2-yl)-1-benzofuran-6-yl]-N-(2,3-dihydroxy-3-methylbutyl)methanesulfonamide]	0.0094	1	107	0.028	0.0602	0.599	0.0602	0.0602	0.36	0.0763	0.0763
CC(O)CN(c1cc2oc(-c3ccc(F)cc3)c(-c3ncc[nH]3)c2cc1C1CC1)S(C)(=O)=O (stereo not shown) [Example 98, N-[5-cyclopropyl-2-(4-fluorophenyl)-3-(1H-imidazol-2-yl)-1-benzofuran-6-yl]-N-(2-hydroxypropyl)methanesulfonamide]	0.0245	3.2	131	0.24	0.158	1.63	0.158	0.158	2.06	0.136	0.136
CS(=O)(=O)N(CCCC(=O)N1CCOCC1)c1cc2oc(-c3ccc(F)cc3)c(-c3ncc[nH]3)c2cc1C1CC1 [Example 103, N-[5-cyclopropyl-2-(4-fluorophenyl)-3-(1H-imidazol-2-yl)-1-benzofuran-6-yl]-N-[4-(morpholin-4-yl)-4-oxobutyl]methanesulfonamide]	0.0079	0.4	50	0.055	0.0446	0.563	0.0446	0.0446	0.114	0.0139	0.0139
CS(=O)(=O)N(CCCC(=O)N1CCCCC1)c1cc2oc(-c3ccc(F)cc3)c(-c3ncc[nH]3)c2cc1C1CC1 [Example 104, N-[5-cyclopropyl-2-(4-fluorophenyl)-3-(1H-imidazol-2-yl)-1-benzofuran-6-yl]-N-[4-oxo-4-(piperidin-1-yl)butyl]methanesulfonamide]	0.0069	0.18	26	0.052	0.0319	0.502	0.0319	0.0319	0.268	0.0133	0.0133
CS(=O)(=O)NC(=O)CCCN(c1cc2oc(-c3ccc(F)cc3)c(-c3ncc[nH]3)c2cc1C1CC1)S(C)(=O)=O [Example 105, 4-{[5-cyclopropyl-2-(4-fluorophenyl)-3-(1H-imidazol-2-yl)-1-benzofuran-6-yl](methylsulfonyl)amino}-N-(methylsulfonyl)butanamide]	0.008	0.111	14	0.016	0.108	1.06	0.108	0.108	0.519	0.0686	0.0686
CC(C)(O)C(=O)CCN(c1cc2oc(-c3ccc(F)cc3)c(-c3ncc[nH]3)c2cc1C1CC1)S(C)(=O)=O [Example 106, N-[5-cyclopropyl-2-(4-fluorophenyl)-3-(1H-imidazol-2-yl)-1-benzofuran-6-yl]-N-(4-hydroxy-4-methyl-3-oxopentyl)methanesulfonamide]	0.0073	0.101	14	0.019	0.0544	0.915	0.0544	0.0544	0.221	0.0273	0.0273
CS(=O)(=O)N(CCC(O)CO)c1cc2oc(-c3ccc(F)cc3)c(-c3ncc[nH]3)c2cc1C1CC1 (stereo not shown) [Example 110, N-[5-cyclopropyl-2-(4-fluorophenyl)-3-(1H-imidazol-2-yl)-1-benzofuran-6-yl]-N-(3,4-dihydroxybutyl)methanesulfonamide]	0.0065	0.125	19	0.012	0.0143	0.206	0.0143	0.0143	0.315	0.0167	0.0167
CS(=O)(=O)N(CCN)c1cc2oc(-c3ccc(F)cc3)c(-c3ncc[nH]3)c2cc1C1CC1 [Example 111, N-(2-aminoethyl)-N-[5-cyclopropyl-2-(4-fluorophenyl)-3-(1H-imidazol-2-yl)-1-benzofuran-6-yl]methanesulfonamide]	0.0099	2	201	0.111	0.152	1	0.152	0.152	0.092	0.0404	0.0404
